# Several values for one entry are separate records, joined by “and”; a condition that tells them apart may be missing. Equal entries are not always repeated. HELM strings list units from the 5' end as sugar, base in round brackets, then linkage (d deoxyribose, r ribose, m 2'-O-methyl, p phosphodiester). Methylation of C is not given here. [moe] = 2'-O-(2-methoxyethyl) (MOE); [cEt] = constrained ethyl (cEt); [sp] = phosphorothioate linkage
# Molecular target: HBV
# Details: ASO
Substance,"target mRNA inhibition (HepG2, 0.07 µM)",further results
RNA1{[moe](G)[sp].[cEt](A)[sp].[cEt](G)[sp].d(A)[sp].d(A)[sp].d(G)[sp].d(T)[sp].d(C)[sp].d(C)[sp].d(A)[sp].d(C)[sp].d(C)[sp].d(A)[sp].[cEt](C)[sp].[cEt](G)[sp].[moe](A)}$$$$V2.0,62% and 54%,–
RNA1{[moe](G)[sp].[cEt](A)[sp].d(A)[sp].d(C)[sp].d(A)[sp].d(A)[sp].d(A)[sp].d(T)[sp].d(G)[sp].d(G)[sp].d(C)[sp].d(A)[sp].[cEt](C)[sp].[moe](T)[sp].[cEt](A)[sp].[moe](G)}$$$$V2.0,75% and 79%,–
RNA1{[moe](G)[sp].[cEt](A)[sp].d(A)[sp].d(C)[sp].d(T)[sp].d(G)[sp].d(G)[sp].d(A)[sp].d(G)[sp].d(C)[sp].d(C)[sp].d(A)[sp].[cEt](C)[sp].[moe](C)[sp].[cEt](A)[sp].[moe](G)}$$$$V2.0,68% and 56%,–
RNA1{[moe](G)[sp].[cEt](A)[sp].d(A)[sp].d(G)[sp].d(C)[sp].d(G)[sp].d(A)[sp].d(A)[sp].d(G)[sp].d(T)[sp].d(G)[sp].d(C)[sp].[cEt](A)[sp].[moe](C)[sp].[cEt](A)[sp].[moe](C)}$$$$V2.0,74% and 76%,–
RNA1{[moe](G)[sp].[cEt](A)[sp].d(G)[sp].d(A)[sp].d(A)[sp].d(G)[sp].d(T)[sp].d(C)[sp].d(C)[sp].d(A)[sp].d(C)[sp].d(C)[sp].[cEt](A)[sp].[moe](C)[sp].[cEt](G)[sp].[moe](A)}$$$$V2.0,34% and 43%,–
RNA1{[moe](G)[sp].[cEt](C)[sp].[cEt](A)[sp].d(C)[sp].d(A)[sp].d(G)[sp].d(C)[sp].d(T)[sp].d(T)[sp].d(G)[sp].d(G)[sp].d(A)[sp].d(G)[sp].[cEt](G)[sp].[cEt](C)[sp].[moe](T)}$$$$V2.0,27% and 12%,–
RNA1{[moe](G)[sp].[cEt](C)[sp].[cEt](A)[sp].d(T)[sp].d(A)[sp].d(G)[sp].d(C)[sp].d(A)[sp].d(G)[sp].d(C)[sp].d(A)[sp].d(G)[sp].d(G)[sp].[cEt](A)[sp].[cEt](T)[sp].[moe](G)}$$$$V2.0,67% and 71%,–
RNA1{[moe](G)[sp].[cEt](C)[sp].d(A)[sp].d(G)[sp].d(A)[sp].d(G)[sp].d(G)[sp].d(T)[sp].d(G)[sp].d(A)[sp].d(A)[sp].d(G)[sp].[cEt](C)[sp].[moe](G)[sp].[cEt](A)[sp].[moe](A)}$$$$V2.0,80% and 85%,"target mRNA inhibition (HepG2, 0.0092593 µM): 21%; target mRNA inhibition (HepG2, 0.0277778 µM): 48%; target mRNA inhibition (HepG2, 0.0833333 µM): 74%; target mRNA inhibition (HepG2, 0.25 µM): 88%"
RNA1{[moe](G)[sp].[cEt](G)[sp].[cEt](T)[sp].d(G)[sp].d(A)[sp].d(A)[sp].d(G)[sp].d(C)[sp].d(G)[sp].d(A)[sp].d(A)[sp].d(G)[sp].d(T)[sp].[cEt](G)[sp].[cEt](C)[sp].[moe](A)}$$$$V2.0,79% and 75%,–
RNA1{[moe](G)[sp].[cEt](G)[sp].d(A)[sp].d(G)[sp].d(T)[sp].d(T)[sp].d(C)[sp].d(C)[sp].d(G)[sp].d(C)[sp].d(A)[sp].d(G)[sp].[cEt](T)[sp].[moe](A)[sp].[cEt](T)[sp].[moe](G)}$$$$V2.0,78% and 87%,"target mRNA inhibition (HepG2, 0.0092593 µM): 12%; target mRNA inhibition (HepG2, 0.0277778 µM): 49%; target mRNA inhibition (HepG2, 0.0833333 µM): 79%; target mRNA inhibition (HepG2, 0.25 µM): 89%"
RNA1{[moe](G)[sp].[cEt](G)[sp].d(C)[sp].d(A)[sp].d(T)[sp].d(A)[sp].d(G)[sp].d(C)[sp].d(A)[sp].d(G)[sp].d(C)[sp].d(A)[sp].[cEt](G)[sp].[moe](G)[sp].[cEt](A)[sp].[moe](T)}$$$$V2.0,74% and 75%,–
RNA1{[moe](G)[sp].[moe](A)[sp].[moe](A)[sp].[moe](C)[sp].[moe](C)[sp].d(A)[sp].d(C)[sp].d(T)[sp].d(G)[sp].d(A)[sp].d(A)[sp].d(C)[sp].d(A)[sp].d(A)[sp].[moe](A)[sp].[moe](T)[sp].[moe](G)}$$$$V2.0,48% and 27%,–
RNA1{[moe](G)[sp].[moe](A)[sp].[moe](A)[sp].[moe](G)[sp].[moe](C)[sp].d(G)[sp].d(A)[sp].d(A)[sp].d(G)[sp].d(T)[sp].d(G)[sp].d(C)[sp].d(A)[sp].d(C)[sp].[moe](A)[sp].[moe](C)[sp].[moe](G)}$$$$V2.0,80% and 58%,–
RNA1{[moe](G)[sp].[moe](A)[sp].[moe](A)[sp].[moe](G)[sp].d(C)[sp].d(G)[sp].d(A)[sp].d(A)[sp].d(G)[sp].d(T)[sp].d(G)[sp].d(C)[sp].d(A)[sp].[moe](C)[sp].[moe](A)[sp].[moe](C)[sp].[moe](G)}$$$$V2.0,65% and 57%,–
RNA1{[moe](G)[sp].[moe](A)[sp].[moe](A)[sp].d(C)[sp].d(T)[sp].d(G)[sp].d(G)[sp].d(A)[sp].d(G)[sp].d(C)[sp].d(C)[sp].d(A)[sp].[moe](C)[sp].[moe](C)[sp].[moe](A)[sp].[moe](G)[sp].[moe](C)}$$$$V2.0,65% and 51%,–
RNA1{[moe](G)[sp].[moe](A)[sp].[moe](A)[sp].d(G)[sp].d(T)[sp].d(C)[sp].d(C)[sp].d(A)[sp].d(C)[sp].d(C)[sp].d(A)[sp].d(C)[sp].d(G)[sp].[cEt](A)[sp].[cEt](G)[sp].[cEt](T)}$$$$V2.0,34% and 33%,–

Substance,"target mRNA inhibition (HepG2, 0.07 µM)",further results
RNA1{[moe](G)[sp].[moe](A)[sp].[moe](G)[sp].[moe](G)[sp].d(C)[sp].d(A)[sp].d(T)[sp].d(A)[sp].d(G)[sp].d(C)[sp].d(A)[sp].d(G)[sp].d(C)[sp].[moe](A)[sp].[moe](G)[sp].[moe](G)}$$$$V2.0,45% and 50%,–
RNA1{[moe](G)[sp].[moe](A)[sp].[moe](G)[sp].[moe](G)[sp].d(T)[sp].d(G)[sp].d(A)[sp].d(A)[sp].d(G)[sp].d(C)[sp].d(G)[sp].d(A)[sp].d(A)[sp].[moe](G)[sp].[moe](T)[sp].[moe](G)[sp].[moe](C)}$$$$V2.0,63% and 54%,–
RNA1{[moe](G)[sp].[moe](A)[sp].[moe](G)[sp].d(T)[sp].d(T)[sp].d(C)[sp].d(C)[sp].d(G)[sp].d(C)[sp].d(A)[sp].d(G)[sp].d(T)[sp].[moe](A)[sp].[moe](T)[sp].[moe](G)[sp].[moe](G)[sp].[moe](A)}$$$$V2.0,61% and 62%,–
RNA1{[moe](G)[sp].[moe](A)[sp].[moe](T)[sp].[moe](G)[sp].[moe](A)[sp].[moe](G)[sp].d(G)[sp].d(C)[sp].d(A)[sp].d(T)[sp].d(A)[sp].d(G)[sp].d(C)[sp].d(A)[sp].d(G)[sp].[moe](C)[sp].[moe](A)}$$$$V2.0,63% and 44%,–
RNA1{[moe](G)[sp].[moe](A)[sp].[moe](T)[sp].[moe](G)[sp].d(A)[sp].d(G)[sp].d(G)[sp].d(C)[sp].d(A)[sp].d(T)[sp].d(A)[sp].d(G)[sp].d(C)[sp].[moe](A)[sp].[moe](G)[sp].[moe](C)[sp].[moe](A)}$$$$V2.0,0% and 13%,–
RNA1{[moe](G)[sp].[moe](A)[sp].[moe](T)[sp].d(G)[sp].d(A)[sp].d(G)[sp].d(G)[sp].d(C)[sp].d(A)[sp].d(T)[sp].d(A)[sp].d(G)[sp].[moe](C)[sp].[moe](A)[sp].[moe](G)[sp].[moe](C)[sp].[moe](A)}$$$$V2.0,51%,–
RNA1{[moe](G)[sp].[moe](A)[sp].[moe](T)[sp].d(G)[sp].d(A)[sp].d(G)[sp].d(G)[sp].d(C)[sp].d(A)[sp].d(T)[sp].d(A)[sp].d(G)[sp].[moe](C)[sp].[moe](A)[sp].[moe](G)[sp].[moe](C)}$$$$V2.0,39% and 38%,–
RNA1{[moe](G)[sp].[moe](A)[sp].d(A)[sp].d(C)[sp].d(C)[sp].d(A)[sp].d(C)[sp].d(T)[sp].d(G)[sp].d(A)[sp].d(A)[sp].[moe](C)[sp].[moe](A)[sp].[moe](A)[sp].[moe](A)[sp].[moe](T)}$$$$V2.0,37% and 25%,–
RNA1{[moe](G)[sp].[moe](A)[sp].d(A)[sp].d(C)[sp].d(T)[sp].d(G)[sp].d(G)[sp].d(A)[sp].d(G)[sp].d(C)[sp].d(C)[sp].[moe](A)[sp].[moe](C)[sp].[moe](C)[sp].[moe](A)[sp].[moe](G)[sp].[moe](C)}$$$$V2.0,70% and 69%,–
RNA1{[moe](G)[sp].[moe](A)[sp].d(A)[sp].d(G)[sp].d(C)[sp].d(G)[sp].d(A)[sp].d(A)[sp].d(G)[sp].d(T)[sp].d(G)[sp].[moe](C)[sp].[moe](A)[sp].[moe](C)[sp].[moe](A)[sp].[moe](C)[sp].[moe](G)}$$$$V2.0,79% and 74%,–
RNA1{[moe](G)[sp].[moe](A)[sp].d(G)[sp].d(A)[sp].d(A)[sp].d(G)[sp].d(T)[sp].d(C)[sp].d(C)[sp].d(A)[sp].d(C)[sp].[moe](C)[sp].[moe](A)[sp].[moe](C)[sp].[moe](G)[sp].[moe](A)[sp].[moe](G)}$$$$V2.0,35% and 21%,–
RNA1{[moe](G)[sp].[moe](A)[sp].d(G)[sp].d(G)[sp].d(C)[sp].d(A)[sp].d(T)[sp].d(A)[sp].d(G)[sp].d(C)[sp].d(A)[sp].[moe](G)[sp].[moe](C)[sp].[moe](A)[sp].[moe](G)[sp].[moe](G)[sp].[moe](A)}$$$$V2.0,64% and 47%,–
RNA1{[moe](G)[sp].[moe](A)[sp].d(G)[sp].d(T)[sp].d(T)[sp].d(C)[sp].d(C)[sp].d(G)[sp].d(C)[sp].d(A)[sp].d(G)[sp].[moe](T)[sp].[moe](A)[sp].[moe](T)[sp].[moe](G)[sp].[moe](G)[sp].[moe](A)}$$$$V2.0,78% and 66%,–
RNA1{[moe](G)[sp].[moe](A)[sp].d(T)[sp].d(G)[sp].d(A)[sp].d(G)[sp].d(G)[sp].d(C)[sp].d(A)[sp].d(T)[sp].d(A)[sp].[moe](G)[sp].[moe](C)[sp].[moe](A)[sp].[moe](G)[sp].[moe](C)[sp].[moe](A)}$$$$V2.0,72% and 65%,–
RNA1{[moe](G)[sp].[moe](A)[sp].d(T)[sp].d(G)[sp].d(A)[sp].d(G)[sp].d(G)[sp].d(C)[sp].d(A)[sp].d(T)[sp].d(A)[sp].[moe](G)[sp].[moe](C)[sp].[moe](A)[sp].[moe](G)[sp].[moe](C)}$$$$V2.0,57% and 33%,–
RNA1{[moe](G)[sp].[moe](C)[sp].[moe](A)[sp].[moe](G)[sp].[moe](A)[sp].d(G)[sp].d(G)[sp].d(T)[sp].d(G)[sp].d(A)[sp].d(A)[sp].d(G)[sp].d(C)[sp].d(G)[sp].[moe](A)[sp].[moe](A)}$$$$V2.0,63% and 58%,–

# — the OligoGym collection
